Paper PMC4879574, “Identification of Leishmania donovani Topoisomerase 1 inhibitors via intuitive scaffold hopping and bioisosteric modification of known Top 1 inhibitors” (Scientific Reports, 2016)

Legend:
[1] = tested on: L. donovani AG83 promastigotes; experiment: MTT assay on extracellular promastigotes; type: cell-based; details: Leishmania donovani, 12 h, read-out: Anti-promastigote activity IC50
Description: Next, compound 4 was screened against extracellular promastigotes.
L. donovani AG83 promastigotes (3.0 × 10^6 cells/ml) are incubated with different concentrations of drugs/compounds under study (1, 2, 5, 10 and 20 μM) for 12 h, following which the survival percentage is estimated by MTT assay. Yellow MTT (3-(4,5-dimethylthiazol- 2-yl)-2,5-diphenyltetrazolium bromide, a tetrazole) is reduced to purple formazan in the mitochondria of living cells. The formazan is then solubilized, and the concentration is determined by optical density at 570 nm. Metabolically active cells convert MTT to formazan, thereby generating a quantitative measure of viability and cytotoxicity. Percentage of viable promastigotes in each treatment groups are determined with respect to untreated control cells.

Human Top1 (HTop1) = biological target: T1, Human Top1 (HTop1) (Homo sapiens, UniProt P11387); experiment: Plasmid DNA relaxation assay, HTop1; type: biochemical; details: averages of three experiments, read-out: HTop1 inhibition (EC50)
T1 construct: made in house; host or cells: Sf-9 insect cells infected with recombinant baculovirus (gift from Prof. J. J. Champoux)
T1 sequence (P11387 1-765): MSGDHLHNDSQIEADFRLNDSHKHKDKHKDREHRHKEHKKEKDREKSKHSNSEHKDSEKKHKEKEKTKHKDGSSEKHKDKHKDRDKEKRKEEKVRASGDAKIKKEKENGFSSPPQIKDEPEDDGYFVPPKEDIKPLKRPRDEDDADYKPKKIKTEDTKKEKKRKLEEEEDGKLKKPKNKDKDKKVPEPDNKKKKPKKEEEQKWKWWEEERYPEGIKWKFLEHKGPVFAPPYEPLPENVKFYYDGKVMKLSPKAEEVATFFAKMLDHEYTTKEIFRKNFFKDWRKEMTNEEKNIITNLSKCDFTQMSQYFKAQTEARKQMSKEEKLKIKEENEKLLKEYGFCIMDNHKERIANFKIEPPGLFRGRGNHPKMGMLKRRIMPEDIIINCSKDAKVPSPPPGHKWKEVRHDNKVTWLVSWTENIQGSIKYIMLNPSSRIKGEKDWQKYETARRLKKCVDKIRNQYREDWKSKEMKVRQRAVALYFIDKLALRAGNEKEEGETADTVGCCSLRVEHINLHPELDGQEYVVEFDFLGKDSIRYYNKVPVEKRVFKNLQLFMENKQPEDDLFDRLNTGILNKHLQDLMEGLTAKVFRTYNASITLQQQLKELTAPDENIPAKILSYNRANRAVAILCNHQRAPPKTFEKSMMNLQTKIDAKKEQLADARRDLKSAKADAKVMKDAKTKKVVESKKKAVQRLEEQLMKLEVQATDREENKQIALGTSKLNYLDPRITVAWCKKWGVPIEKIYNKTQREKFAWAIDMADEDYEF
Description: (§1) To investigate the inhibitory effect of our library compounds on the DNA relaxation activity of the recombinant Human and Leishmania topoisomerase 1 (Table 2), assays were performed involving supercoiled plasmid DNA, the enzymes (HTop1 and LdTop1) and our molecules. The enzymes were purified by the standard literature procedure.
(§2) The type I DNA topoisomerase are assayed by decreased mobility of the relaxed isomers of supercoiled pBS (SK^+) [pBlue-script (SK^+)] DNA in agarose gel. The relaxation assay was carried out as described previously with LdTop1B and HTop I, diluted in the relaxation buffer (25 mM Tris–HCl, pH 7.5, 5% glycerol, 0.5 mM DTT, 10 mM MgCl2, 50 mM KCl, […] and […] BSA) and supercoiled plasmid pBS (SK^+) DNA (85–95% were negatively supercoiled, with remainder being nicked circles)[9][28][29]. The reconstituted enzyme LdTop1B was assayed at 50 mM KCl concentration as described before. For all kinetic studies, the reaction mixtures containing the buffer and DNA were heated to 37 °C before addition of the enzymes. The reactions were rapidly quenched using stop solution and kept on ice. The gels were stained with ethidium bromide (EtBr) ([…]) and the amount of supercoiled monomer DNA band fluorescence were quantified by integration using Gel Doc 2000 under UV illumination (Bio-Rad Quantity One Software), as described previously.
The wild-type HTop1 (91 kDa) was purified from Sf-9 insect cells infected with the recombinant baculovirus (a kind gift from Prof. J. J. Champoux). Approximately, 1 * 10^9 Sf-9 cells were infected with the recombinant virus, and cells were harvested after 48-h of infection. The cells were lysed and enzyme was purified as described. Briefly, at 48 h post-infection, approximately 3 * 10^9 Sf-9 cells were harvested by centrifugation for 5 min at 400 * g. The cells were resuspended in 1 liter of ice-cold phosphate-buffered saline and centrifuged for 5 min at 400 * g. The nuclei were washed twice in 80 ml of lysis buffer minus Triton X-100 and resuspended in 40 ml of resuspension buffer (50 mM KCl, 10 mM Tris-Cl, pH 7.5, 2 mM MgCl2, 25 mM DTT, 0.4 mg/ml phenylmethylsulfonyl fluoride, 0.12 mg/ml aprotinin). The nuclear extract was stirred for 5 min at ~200 rpm. With continued stirring, 50 ml of polyethylene glycol (PEG) buffer (18% PEG 8000, 1 M NaCl, 10% glycerol) was added dropwise in order to precipitate the DNA. The PEG precipitate was pelleted by centrifugation and the resulting PEG supernatant was dialyzed against 4 liters of potassium phosphate buffer. The dialyzed PEG supernatant passed over a 10-ml bed volume of phosphocellulose (Whatman P11) equilibrated with PPB. The HTop1 flowed through the PS column and then passed over a Mono Q column followed by loaded onto a Mono S column. The Mono S column was eluted with a 25-ml 50–200 mM KPO4, pH 7.4, gradient. […] The peak Mono S fractions were pooled, concentrated with an Amicon ultrafiltration cell, dialyzed into storage buffer (50% glycerol, 10 mM Tris-hydrochloride, pH 7.5, 1 mM DTT, 1 mM EDTA), and stored at −20 °C.

[2] = biological target: Leishmania donovani Topoisomerase 1 (LdTop1) (Leishmania donovani, UniProt A0A3Q8IHS4+Q8WQM6); experiment: Plasmid DNA relaxation assay, LdTop1 (simultaneous incubation); type: biochemical; details: plasmid DNA relaxation; for EC50: averages of three experiments, read-out: LDTop1 inhibition (EC50)
Description: as §1
All the experiments were conducted thrice and representative data from once set of them are expressed as mean ± SD.
as §2
Cells harvested from 1 litre of culture were separately lysed by lysozyme/sonication, and the proteins were purified through Ni-NTA (Ni^2+-nitriloacetate-agarose column (Qiagen, Hilden, Germany) followed by a phospho-cellulose column (P11 cellulose; Whatman, Maidstone Kent, UK) as described previously. Finally, the purified proteins LdTOP1L and LdTOP1S were stored at −70 °C. The concentrations of each protein were quantified by using Bradford Reagent (PIERCE, Thermo Fisher Scientific Inc., Rockford, USA). Purified LdTOP1L was mixed with purified LdTOP1S at a molar ratio of 1:1 to a total protein concentration of 0.5 mg/ml in reconstitution buffer [50 mM potassium phosphate, pH 7.5, 0.5 mM DTT, 1 mM EDTA, 0.1 mM PMSF and 10% (v/v) glycerol]. The mixture was dialyzed overnight at 4 °C and dialyzed fractions were used for plasmid relaxation activity.

Chain of Leishmania donovani Topoisomerase 1 (LdTop1) (Q8WQM6 entry or part of it): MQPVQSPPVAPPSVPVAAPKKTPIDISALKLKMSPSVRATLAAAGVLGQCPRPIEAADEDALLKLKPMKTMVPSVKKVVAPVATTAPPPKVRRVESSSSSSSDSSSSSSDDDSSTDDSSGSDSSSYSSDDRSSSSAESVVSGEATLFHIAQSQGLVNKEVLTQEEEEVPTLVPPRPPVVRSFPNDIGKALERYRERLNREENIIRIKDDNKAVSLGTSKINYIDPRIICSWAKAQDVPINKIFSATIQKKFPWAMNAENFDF
Chain of Leishmania donovani Topoisomerase 1 (LdTop1) (A0A3Q8IHS4 entry or part of it): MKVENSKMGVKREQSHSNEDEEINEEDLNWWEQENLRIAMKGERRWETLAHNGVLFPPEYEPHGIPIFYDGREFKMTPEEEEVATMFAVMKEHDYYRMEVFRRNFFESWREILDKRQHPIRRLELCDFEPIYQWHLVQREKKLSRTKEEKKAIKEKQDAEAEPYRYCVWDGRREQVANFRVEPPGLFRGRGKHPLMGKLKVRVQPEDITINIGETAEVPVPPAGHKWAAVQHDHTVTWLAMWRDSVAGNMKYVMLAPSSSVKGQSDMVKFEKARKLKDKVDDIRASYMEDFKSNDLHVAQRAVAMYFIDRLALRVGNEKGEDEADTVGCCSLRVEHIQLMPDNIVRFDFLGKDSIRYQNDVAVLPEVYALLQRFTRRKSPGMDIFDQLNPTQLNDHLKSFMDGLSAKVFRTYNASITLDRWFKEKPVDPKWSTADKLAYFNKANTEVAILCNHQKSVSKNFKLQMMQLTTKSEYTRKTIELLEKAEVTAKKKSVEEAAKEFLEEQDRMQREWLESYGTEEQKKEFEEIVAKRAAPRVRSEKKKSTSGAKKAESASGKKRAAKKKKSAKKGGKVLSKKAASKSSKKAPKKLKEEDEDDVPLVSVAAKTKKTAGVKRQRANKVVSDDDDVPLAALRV

| SMILES | IC50 [1] [µM] | EC50 (Human Top1 (HTop1)) [µM] | LdTop1 inhibitory activity [2] | EC50 [2] [µM] |
| --- | --- | --- | --- | --- |
| CCCCCCCCCCCCCCCCOP(=O)([O-])OCC[N+](C)(C)C [miltefosine, reference compound] | ~1 | – | – | – |
| CC/C=C1\OC(=O)c2c1cc(C)[nH]c2=O [Compound 16] | – | > 100 | no inhibitory activity at all | > 100 |
| Cc1cc2c(c(=O)[nH]1)C(=O)O/C2=C\c1ccc(Br)cc1 [Compound 10] | – | > 100 | – | > 100 |
